# ChEMBL document CHEMBL1123687, “A new thienylpyrazoloquinoline: a potent and orally active inverse agonist to benzodiazepine receptors” (J Med Chem, 1987)
# Experiments:
# Mus musculus [1] = experiment: Ability to inhibit pentylenetetrazole (PTZ) induced convulsions in mice after intravenous administration at 75 mg/Kg; Range is between (0.34-0.73); type: functional
# Mus musculus [2] = experiment: Ability to facilitate pentylenetetrazole (PTZ) induced convulsions in mice after intravenously administration at 90 mg/Kg; Range is between (0.24-0.40); type: functional; conditions: iv
# [3] = biological target: GABA-A receptor; anion channel; experiment: Displacement of [3H]-diazepam from GABA-A benzodiazepine receptor of rat cerebral cortex; type: tissue-based
# Mus musculus [4] = experiment: Ability to inhibit pentylenetetrazole (PTZ) induced convulsions n mice after peroral administration at 125 mg/Kg; Range is between (2.70-7.09); type: functional; conditions: po
# Mus musculus [5] = experiment: Ability to facilitate pentylenetetrazole (PTZ) induced convulsions in mice after intravenously administration at 90 mg/Kg; Range is between (0.27-0.71); type: functional; conditions: iv
# Mus musculus [6] = experiment: Ability to facilitate pentylenetetrazole (PTZ) induced convulsions in mice after peroral administration at 50 mg/Kg; type: functional; conditions: po
# Mus musculus [7] = experiment: Ability to inhibit pentylenetetrazole (PTZ) induced convulsions in mice after intravenously administration at 75 mg/Kg; Range is between (0.62-1.62); type: functional; conditions: iv
# Mus musculus [8] = experiment: Ability to facilitate pentylenetetrazole (PTZ) induced convulsions n mice after peroral administration at 90 mg/Kg; Range is between (5.43-33.74); type: functional; conditions: po
# Mus musculus [9] = experiment: Ability to facilitate pentylenetetrazole (PTZ) induced convulsions n mice after intravenous administration at 90 mg/Kg; Range is between (0.09-0.50); type: functional
# Mus musculus [10] = experiment: Ability to inhibit pentylenetetrazole (PTZ) induced convulsions in mice after peroral administration at 75 mg/Kg; […]; type: functional; conditions: po
# Mus musculus [11] = experiment: Ability to inhibit pentylenetetrazole (PTZ) induced convulsions in mice after peroral administration at 90 mg/Kg; type: functional; conditions: po
# Mus musculus [12] = species: Mus musculus; experiment: animal or person; conditions: po
smiles,measurement,setting,value
COC(=O)c1cc2c(cn1)[nH]c1ccccc12 [BETA-CCM],ED50,Mus musculus [1],0.49 mg/kg
same,ED50,Mus musculus [2],0.29 mg/kg
same,Ki,[3],1.47 nM
Cc1ccc(-n2[nH]c3c(cnc4ccccc43)c2=O)s1,ED50,Mus musculus [4],4.59 mg/kg
same,Ki,[3],0.32 nM
CCOC(=O)c1cc2c(cn1)[nH]c1ccccc12,ED50,Mus musculus [5],0.46 mg/kg
same,ED50,Mus musculus [6],37.5 mg/kg
same,ED50,Mus musculus [7],1 mg/kg
O=C1C2C=Nc3ccccc3C2=NN1c1ccccc1 (centres undefined) [CGS-8216],ED50,Mus musculus [8],12.8 mg/kg
same,ED50,Mus musculus [9],0.2 mg/kg
Cc1cc(-n2[nH]c3c(cnc4ccccc43)c2=O)cs1,ED50,Mus musculus [10],1.67 mg/kg
same,ED50,Mus musculus [11],0.92 mg/kg
same,Ki,[3],0.316 nM
CN1C(=O)CN=C(c2ccccc2)c2cc(Cl)ccc21 [DIAZEPAM],ED50,Mus musculus [12],0.67 mg/kg
